Series [1] can be described thus: logP by HPLC (EEC Directive 79/831 Annex V.A8). It is filed as physicochemical. Particulars: HPLC reversed-phase C18, method [a]: LC-MS, pH 2.7, 0.1% aqueous formic acid / acetonitrile, gradient 10% to 95% acetonitrile; for chromatographic logP: reversed-phase C18 HPLC column.
Series [2] has as its system Blumeria graminis f.sp. hordei. Put plainly: Blumeria graminis test (barley)/protective. In kind it is in vivo. Particulars: barley plants, protective spray, 500 ppm active ingredient, evaluation 7 days after inoculation.
The next series concerns Leptosphaeria nodorum. Put plainly: Leptosphaeria nodorum test (wheat)/protective. In kind it is in vivo. Particulars: wheat plants, protective spray, 500 ppm active ingredient, evaluation 8 days after inoculation.
The next series relates to Puccinia triticina. Put plainly: Puccinia triticina test (wheat)/protective. In kind it is in vivo. The settings on record: wheat plants, protective spray, 500 ppm active ingredient, evaluation 8 days after inoculation. The text has this: Evaluation follows 8 days after the inoculation.
A further series has as its system Septoria tritici. Put plainly: Septoria tritici test (wheat)/protective. The settings on record: wheat plants, protective spray, 500 ppm active ingredient, evaluation 21 days after inoculation. It is filed as in vivo.
A further series has as its system Sphaerotheca fuliginea. Put plainly: Sphaerotheca test (cucumber)/protective. The settings on record: cucumber plants, protective spray, 500 ppm active ingredient, evaluation 7 days after inoculation.

Experimental for Sphaerotheca fuliginea: • Solvent: 49 parts by weight of N,N-dimethylformamide • Emulsifier: 1 part by weight of alkylaryl polyglycol ether
To produce an appropriate active ingredient formulation, 1 part by weight of active ingredient is mixed with the specified amounts of solvent and emulsifier, and the concentrate is diluted with water to the desired concentration. To test for protective activity, young cucumber plants are sprayed with the formulation of active ingredient at the stated application rate. 1 day after the treatment, the plants are inoculated with a spore suspension of Sphaerotheca fuliginea. The plants are then placed in a greenhouse at 70% relative air humidity and a temperature of 23° C. Evaluation follows 7 days after the inoculation.

Regarding `CC(CF)(CF)C(O)(COc1ccc(I)cc1)c1cncs1` (stereo not shown) [Compound 4], the chromatographic logP in series [1] was 3.16. For the same compound, the efficacy (in series [2]; in the series with Leptosphaeria nodorum; in the series on Puccinia triticina; in the series on Septoria tritici; in the series on Sphaerotheca fuliginea) was 100% in each case.
Regarding `CC(CF)(CF)C(O)(COc1ccc(Br)cc1)c1cncs1` (stereo not shown) [Compound 8], in series [1], the logP entry is “logP 3.02^[a]; [M + H]^+ = 392/394”. In addition, the efficacy in series [2] is 89%; in the series with Sphaerotheca fuliginea, 94%.
Taken in the same sequence, the figures for `OC(Cc1ccccc1Cl)(c1cncs1)C1(F)CC1` (stereo not shown) [Compound 11] were “logP 2.64^[a]; [M + H]^+ = 298”, 78% and 70%.
Turning to `CC(C)(C)C(O)(COc1ccc(Cl)cc1)c1cnc(S)s1` (stereo not shown) [Compound 12], the chromatographic logP in series [1] is 3.06. Besides, the figures for the efficacy (in series [2]; in the series with Leptosphaeria nodorum; in the series on Sphaerotheca fuliginea) were 89%, 86% and 98%, respectively.
As to `CC(C)(C)C(O)(COc1ccc(OC(F)(F)F)cc1)c1cncs1` (stereo not shown) [Compound 20], the efficacy came out at 100% in series [2]; 100% with Leptosphaeria nodorum; 100% with Puccinia triticina; 100% in the series with Septoria tritici; 88% with Sphaerotheca fuliginea.
In the case of `CC1(C(O)(COc2ccc(I)cc2)c2cncs2)CCCCC1` (stereo not shown) [Compound 25], the logP entry in series [1] was “logP 4.53^[a]; [M + H]^+ = 444”. For the same compound, the efficacy with Puccinia triticina is recorded as 78%; in the series with Septoria tritici it was 86%; with Sphaerotheca fuliginea it was 100%.
With `OC(Cc1cnc(I)s1)(Cc1ccccc1Cl)C1(Cl)CC1` (stereo not shown) [Compound 39], the efficacy in series [2] amounted to 90%; in the series with Sphaerotheca fuliginea it was 100%.
Turning to `CC(C)(C)C(O)(COc1ccc(F)cc1)c1cncs1` (stereo not shown) [Compound 42], in series [1], the logP result was “logP 2.91^[a]; [M + H]^+ = 296”. Also, the efficacy in series [2] is 100%; in the series with Puccinia triticina it was 89%; with Sphaerotheca fuliginea, 94%.
As for `CC(C)(C)C(O)(COc1ccc(-c2ccc(C#N)cc2)cc1)c1cncs1` (stereo not shown) [Compound 51], the logP result in series [1] was “logP 3.46^[a]; [M + H]^+ = 379”. In the series with Sphaerotheca fuliginea, the efficacy was found to be 94%.
Consider `CC(C)(C)C(O)(COc1ccc(-c2ccc(Br)cc2)cc1)c1cncs1` (stereo not shown) [Compound 52], for which the logP result in series [1] was “logP 4.71^[a]; [M + H]^+ = 432/434”. Also, the efficacy in the series on Sphaerotheca fuliginea is recorded as 100%.
`CC(C)(/C=C/Cl)C(O)(COc1ccc(I)cc1)c1cncs1` (stereo not shown) [Compound 53]: the logP entry in series [1] was “logP 3.92^[a]; [M + H]^+ = 450”. In addition, the efficacy in series [2] was 94%; with Leptosphaeria nodorum it was 83%; with Puccinia triticina, 100%; in the series on Septoria tritici, 100%; with Sphaerotheca fuliginea, 94%.
On to `CC(C)(/C=C/Cl)C(O)(COc1ccc(Cl)cc1)c1cncs1` (stereo not shown) [Compound 54], for which the logP result in series [1] was “logP 3.67^[a]; [M + H]^+ = 358”. Further, the efficacy with Sphaerotheca fuliginea amounted to 95%.
Take `CC(C)(C)C(O)(COc1ccc(Cl)cc1)Cc1cncs1` (stereo not shown) [Compound 64]: the logP result in series [1] was “logP 3.49^[a]; [M + H]^+ = 326”. Besides, the efficacy in the series with Sphaerotheca fuliginea is listed as 100%.
In the case of `CC(CF)(CF)C(O)(COc1ccc(Cl)cc1)Cc1cncs1` (stereo not shown) [Compound 67], in series [1], the logP result was “logP 3.04^[a]; [M + H]^+ = 362”. The same compound registered an efficacy in the series on Sphaerotheca fuliginea of 95%.
With `CC(C)(C)C(O)(CCc1ccc(Br)cc1)c1cncs1` (stereo not shown) [Compound 72], the logP entry in series [1] is “logP 3.69^[a]; [M + H]^+ = 354, 356”. In the series with Sphaerotheca fuliginea, the efficacy was found to be 100%.
With `COc1ccc(CCC(O)(c2cncs2)C(C)(C)C)cc1` (stereo not shown) [Compound 73], in series [1], the logP result was “logP 2.94^[a]; [M + H]^+ = 306”. The compound further registered an efficacy with Sphaerotheca fuliginea of 78%.
Taken in the same sequence, the figures for `CC(C)(C)C(O)(CCc1ccc(OC(F)(F)F)cc1)c1cncs1` (stereo not shown) [Compound 74] were “logP 3.93^[a]; [M + H]^+ = 360” and 100%.
Taken in the same sequence, the figures for `CC(C)(C)C(O)(COc1ccc(C2CCCC2)cc1)c1cncs1` (stereo not shown) [Compound 80] were “logP 4.78^[a]; [M + H]^+ = 346” and 94%.

The term chromatographic logP denotes a lipophilicity value derived from retention on a column.

The values above are taken from patent US8440836B2, “Heterocyclic alkanol derivatives” (Bayer Intellectual Property GmbH, priority 2010, dated 2013).
